Experimental data taken from patent publication US20020119891A1, “Integrated methods for control of aquatic weeds” (priority 2001, published 2002).
Several values for one entry are separate records, joined by “and”; a condition that tells them apart may be missing. Equal values may be shown once.

Columns and labels:
Eurasian watermilfoil [1] = experiment: Pretreatment aquatic weed bioassay: sampled plants exposed to fluridone, pigments assayed; type: in vivo
From the text: (§1) As disclosed above, fluridone treatments of the invention are integrated with assays to determine the efficacy of fluridone on the local plant population in the body of water under treatment, and desirably also with assays to determine the concentration of fluridone existing during the treatment program. For example, in the present invention, an aquatic weed bioassay can be used to determine the pre-treatment susceptibility of a target plant population to fluridone. Such an assay may for instance involve the collection of meristematic stem tissue or vegetative propagules at selected sites within a body of water to be treated. The sites of collection may be logged, for instance using coordinates defined by the global positioning satellite (GPS) system. […]
(§2) At the completion of the growth period, all new growth from the plants can be excised from the original plant tissue. […] After the extraction, the extracted sample is assayed to quantitate the levels of pigments, for example chlorophyll and/or β-carotene. […] For example, spectrophotometric absorbance measurements for chlorophyll may be taken at 645 and/or 662 nm; for β-carotene may be taken at 445 nm; and for phytoene may be taken at 287 and/or 347 nm. These measured values may be compared to control data (e.g. including curves generated using samples of known concentration) to determine the level of these substances in the samples. […]

hydrilla [2] = experiment: Pretreatment aquatic weed bioassay: apical tips grown in fluridone-treated medium, pigments of new growth assayed; type: in vivo, Hydrilla verticillata
From the text: as §1, §2

Eurasian watermilfoil [3] = experiment: Field treatment of a lake with fluridone; type: in vivo
From the text: (§3) Preferred methods of the present invention also involve plant biochemical testing conducted during the treatment. Thus, during the period in which a fluridone level is being maintained in the body of water under treatment, aquatic weed samples are obtained from the water body. This may involve, for example, collection of growing apical meristems from selected sites in the water body, preferably along with matched water samples from the same sites. Again, the sample sites can be logged using GPS or another suitable system to assist in future sampling and reference.
The aquatic weed plant samples can then be assessed to determine the effect of the maintained level of fluridone on the plants. To this end, the samples are first thoroughly washed and weighed. In a typical treatment, 6 to 12 samples per site will be collected. Similar to the discussions above, standard methods are then used to assay the level of pigments such as B-carotene, chlorophyll, and/or other relevant substances such as phytoene, in the tissue. […] The levels can be measured as discussed above using any suitable method such as spectrophotometry or fluorometry and appropriate standard curves. The measured values can then be utilized to determine whether any additional applications of fluridone or other adjustments are necessary to bring concentrations to levels that will be phytotoxic to the local aquatic weed population. […]

aquatic weeds = details: cited from earlier work
hydrilla [4] = experiment: Field treatment of a water body with plant biochemical and water residue monitoring; type: in vivo, Hydrilla verticillata
From the text: as §3
The aquatic weed plant samples can then be assessed to determine the effect of the maintained level of fluridone on the plants. To this end, the samples are first thoroughly washed and weighed. In a typical treatment, 6 to 12 samples per site will be collected. Similar to the discussions above, standard methods are then used to assay the level of pigments such as B-carotene, chlorophyll, and/or other relevant substances such as phytoene, in the tissue. […] The levels can be measured as discussed above using any suitable method such as spectrophotometry or fluorometry and appropriate standard curves. The measured values can then be utilized to determine whether any additional applications of fluridone or other adjustments are necessary to bring concentrations to levels that will be phytotoxic to the local aquatic weed population.
The biochemical assays discussed above, taken during treatment, are preferably used in conjunction with assays of water samples simultaneously taken, to determine the concentration of fluridone in the water body. […] The combination of measured fluridone concentration along with measured effect on plant health provides a particularly powerful method for the management of aquatic weeds in water bodies.
The Spring Creek Arm of Lake Seminole (5000 acres) was treated in May 2000 using a drip system that added fluridone based on flow rates in the river. […] Plant response to the treatment was monitored and threshold water concentrations were determined. […]

## 1-methyl-3phenyl-5-3-(trifluoromethyl)phenyl-4(1H)-pyridinone [fluridone]
Eurasian watermilfoil [1]; Example 3: Eurasian watermilfoil from Wolverine Lake, Michigan, 0, 3, 6, 9, 12, 15 ppb
  threshold concentration of fluridone: 6 ppb and 9 ppb
Eurasian watermilfoil [1]; Wolverine Lake Eurasian watermilfoil, 3 ppb
  plant response below threshold: rapid recovery of the plants
Hydrilla [2]; Example 1: hydrilla from 2500-acre Florida lake, 0, 3, 6, 12, 24 ppb, 12-day growth, no enhancement at 12 and 24 ppb
  threshold concentration of fluridone (pigment concentrations in new growth): 6 ppb
Hydrilla [2]; Spring Creek Arm of Lake Seminole hydrilla
  lowest rate hydrilla is susceptible to (pretreatment assay): 5 ppb
Eurasian watermilfoil [3]; Lake McKinney, Minnesota, treated late summer 1999, assessed end of following summer
  weed control result of field treatment: could no longer be found in the lake
Eurasian watermilfoil [3]; Wolverine Lake, two applications at 5 and 6 ppb in the last 3 years
  weed control result of previous field applications: unsatisfactory results
Aquatic weeds; other species, only higher concentrations
  susceptible concentration, less sensitive species: 150 ppb
Aquatic weeds; some species, as low as
  susceptible concentration, more sensitive species: about 5 ppb
Hydrilla [4]; Lake Eva, 1999 treatment
  weed control result of earlier treatment: very poor control
Hydrilla [4]; Lake Eva, Central Florida, treated April 2000, target rate 15 ppb
  lake concentration relative to control threshold (pigment assay): below thresholds required to provide control
Hydrilla [4]; Spring Creek Arm of Lake Seminole, drip system treatment, May 2000
  plant response at downstream sites (plant sampling): lack of impact at several downstream sites
